Reference: patent US20080275085A1, “Piperidine derivative and use thereof” (priority 2007, published 2008)
Structures can show the parent of a compound that is named as a salt.

Biological target: T1, substance P receptor (Homo sapiens, UniProt P25103)
T1 construct: The receptor was prepared from human lymphoblast cells (IM-9); endogenous in cells; host or cells: IM-9 human lymphoblast cells (membrane fraction, 100,000xG precipitate)
Assay: Radioligand receptor binding inhibitory activity (125I-BHSP binding, receptor from IM-9 cells)
Details: receptor from human lymphoblast cells (IM-9); radioligand 125I-BHSP; 25° C., 30 min
Protocol: Radioligand Receptor Binding Inhibitory Activity (Binding Inhibitory Activity Using Receptor from Human Lymphoblast Cells (IM-9))
The method of M. A. Cascieri et al., “Molecular Pharmacology, vol. 42, p. 458 (1992)” was modified and used. The receptor was prepared from human lymphoblast cells (IM-9).
IM-9 cells (2×10^5 cells/mL) were inoculated and incubated for 3 days, which was then subjected to centrifugation for 10 min. at 500×G to give cell pellets. The obtained pellets were washed with PBS (GIBCO), disrupted in buffer A (50 mM tris.hydrochloric acid buffer (pH 7.4) containing 120 mM sodium chloride, 5 mM potassium chloride, 2 μg/mL chymostatin, 40 μg/mL bacitracin, 40 μg/mL APMSF, 1 mM ethylenediamine tetra acetic acid) using a polytron.homogenizer [manufactured by Kinematika, Germany], and centrifuged at 100,000×G for 40 min. The precipitated fraction was suspended in buffer B (50 mM Tris-HCl (pH 7.4), 0.02% bovine serum albumin, 2 μg/mL chymostatin, 40 μg/mL bacitracin, 40 μg/mL APMSF, 3 mM MgCl2), which was then cryopreserved (−80° C.) as a receptor specimen.
Buffer B (50 μL) was added to a 96 well microassay plate (CORNING). Thereto was added 50 μL of membrane preparation suspended in buffer B at 250 μg/mL. A measurement buffer (50 μL) containing 2% dimethyl sulfoxide was added to examine total binding; 4 μM unlabeled SP (50 μL) diluted with a measurement buffer containing 2% dimethyl sulfoxide was added to examine non-specific binding; and 50 μL of a test compound (containing 2% dimethyl sulfoxide) diluted with a measurement buffer was added to examine binding inhibitory activity of the test compound. In addition, […] ^125I-BHSP solution (50 μL) was added to each well.
After reaction at 25° C. for 30 min, the cells were rapidly filtered through a GF/C filter plate (PerkinElmer) using a cell harvester (manufactured by PerkinElmer) to quench the reaction, and washed 10 times with 250 μL of 50 mM tris-HCl buffer (pH 7.4) containing 0.02% bovine serum albumin. The GF/C filter plate was dried, MicroScinti 0 (20 μL) was added, and the radioactivity was measured with TopCount (manufactured by PerkinElmer). The GF/C filter plate was immersed in 0.3% polyethylene imine for one day before use.
Specific binding is a value obtained by subtracting nonspecific binding from total binding. The binding inhibitory activity of a test compound is shown by a ratio of a value obtained by subtracting a measurement value with addition of a test compound from the total binding, relative to specific binding.
The antagonistic activity of the compounds obtained in the Examples was determined as a concentration necessary for causing 50% inhibition (IC50 value) under the above-described conditions, and the results shown in Table 34 were obtained.
The radio ligand means substance P labeled with [^125I].

T1 sequence (P25103 whole entry): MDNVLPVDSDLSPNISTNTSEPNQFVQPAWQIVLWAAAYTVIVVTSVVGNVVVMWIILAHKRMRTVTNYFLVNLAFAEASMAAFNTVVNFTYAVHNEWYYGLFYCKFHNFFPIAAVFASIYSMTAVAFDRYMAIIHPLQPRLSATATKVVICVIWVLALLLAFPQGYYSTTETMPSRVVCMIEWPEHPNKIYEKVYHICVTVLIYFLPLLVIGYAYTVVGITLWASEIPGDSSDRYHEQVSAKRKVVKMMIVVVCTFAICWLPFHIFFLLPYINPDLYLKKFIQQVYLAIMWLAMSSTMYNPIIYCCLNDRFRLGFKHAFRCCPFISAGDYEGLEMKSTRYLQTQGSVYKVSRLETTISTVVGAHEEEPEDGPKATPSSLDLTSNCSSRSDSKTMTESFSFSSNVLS

Structure (SMILES)	IC50
Cc1cc(F)ccc1[C@H]1CN(C(=O)C2CCN(C(=O)CO)CC2)CC[C@@H]1C(=O)N(C)[C@@H](C)c1cc(C(F)(F)F)cc(C(F)(F)F)c1 [Example 152, (3S,4S)—N-{(1S)-1-[3,5-bis(trifluoromethyl)phenyl]ethyl}-3-(4-fluoro-2-methylphenyl)-1-[(1-glycoloylpiperidin-4-yl)carbonyl]-N-methylpiperidine-4-carboxamide]	0.015 nM
Cc1cc(F)ccc1[C@H]1CN(C(=O)C2CCN(C(=O)[C@H](C)O)CC2)CC[C@@H]1C(=O)N(C)Cc1cc(C(F)(F)F)cc(C(F)(F)F)c1 [Example 150, (3S,4S)—N-[3,5-bis(trifluoromethyl)benzyl]-3-(4-fluoro-2-methylphenyl)-1-({1-[(2S)-2-hydroxypropanoyl]piperidin-4-yl}carbonyl)-N-methylpiperidine-4-carboxamide]	0.033 nM
Cc1cc(F)ccc1[C@@H]1CN(CC(N)=O)CC[C@H]1C(=O)N(C)Cc1cc(C(F)(F)F)cc(C(F)(F)F)c1 (relative stereo) [Example 112, (3R*,4R*)-1-(2-amino-2-oxoethyl)-N-[3,5-bis(trifluoromethyl)benzyl]-3-(4-fluoro-2-methylphenyl)-N-methylpiperidine-4-carboxamide monohydrochloride]	0.038 nM
Cc1cc(F)ccc1[C@H]1CN(CCS(C)(=O)=O)CC[C@@H]1C(=O)N(C)[C@@H](C)c1cc(C(F)(F)F)cc(C(F)(F)F)c1 [Example 180, (3S,4S)—N-{(1S)-1-[3,5-bis(trifluoromethyl)phenyl]ethyl}-3-(4-fluoro-2-methylphenyl)-N-methyl-1-[2-(methylsulfonyl)ethyl]piperidine-4-carboxamide monohydrochloride]	0.023 nM
Cc1ccccc1[C@H]1CN(C(=O)C2CCN(C(=O)[C@@H](C)O)CC2)CC[C@@H]1C(=O)N(C)Cc1cc(C(F)(F)F)cc(C(F)(F)F)c1 [Example 29, (3S,4S)—N-[3,5-bis(trifluoromethyl)benzyl]-1-({1-[(2R)-2-hydroxypropanoyl]piperidin-4-yl}carbonyl)-N-methyl-3-(2-methylphenyl)piperidine-4-carboxamide]	0.023 nM
Cc1ccsc1C1CN(C(=O)C2CCN(C(=O)CO)CC2)CCC1C(=O)N(C)[C@@H](C)c1cc(C(F)(F)F)cc(C(F)(F)F)c1 (single isomer, unassigned; more polar) [Example 176, (3R*,4S*)—N-{(1S)-1-[3,5-bis(trifluoromethyl)phenyl]ethyl}-1-[(1-glycoloylpiperidin-4-yl)carbonyl]-N-methyl-3-(3-methyl-2-thienyl)piperidine-4-carboxamide (more polar)]	0.051 nM
Cc1cc(F)ccc1[C@H]1CN(C(=O)C(N)=O)CC[C@@H]1C(=O)N(C)[C@@H](C)c1cc(C(F)(F)F)cc(C(F)(F)F)c1 [Example 178, (3S,4S)-1-[amino(oxo)acetyl]-N-{(1S)-1-[3,5-bis(trifluoromethyl)phenyl]ethyl}-3-(4-fluoro-2-methylphenyl)-N-methylpiperidine-4-carboxamide]	0.017 nM
Cc1cc(F)ccc1[C@@H]1CN(C2CCN(C(N)=O)CC2)CC[C@H]1C(=O)N(C)Cc1cc(C(F)(F)F)cc(C(F)(F)F)c1 (relative stereo) [Example 109, (3R*,4R*)—N^4-[3,5-bis(trifluoromethyl)benzyl]-3-(4-fluoro-2-methylphenyl)-N^4-methyl-1,4′-bipiperidine-1′,4-dicarboxamide monohydrochloride]	0.023 nM

Test system: not given
Assay: not given
Details: not given

Structure (SMILES)	melting point
Cc1cc(F)ccc1[C@@H]1CN(C(C)(C)C(N)=O)CC[C@H]1C(=O)N(C)Cc1cc(C(F)(F)F)cc(C(F)(F)F)c1 (relative stereo) (as salt: hydrochloride) [Example 113, (3R*,4R*)-1-(2-amino-1,1-dimethyl-2-oxoethyl)-N-[3,5-bis(trifluoromethyl)benzyl]-3-(4-fluoro-2-methylphenyl)-N-methylpiperidine-4-carboxamide monohydrochloride]	209 to 211 °C
Cc1cc(F)ccc1[C@H]1CN(C(=O)c2cncnc2)CC[C@@H]1C(=O)N(C)[C@@H](C)c1cc(C(F)(F)F)cc(C(F)(F)F)c1 (hydrate or solvate) [Example 158, (3S,4S)—N-{(1S)-1-[3,5-bis(trifluoromethyl)phenyl]ethyl}-3-(4-fluoro-2-methylphenyl)-N-methyl-1-(pyrimidin-5-ylcarbonyl)piperidine-4-carboxamide]	185 to 188 °C
CC(=O)Nc1ccc(N2CC[C@@H](C(=O)N(C)Cc3cc(C(F)(F)F)cc(C(F)(F)F)c3)[C@H](c3ccc(F)cc3C)C2)nc1 (relative stereo) (as salt: hydrochloride) (hydrate or solvate) [Example 129, (3R*,4R*)-1-[5-(acetylamino)pyridin-2-yl]-N-[3,5-bis(trifluoromethyl)benzyl]-3-(4-fluoro-2-methylphenyl)-N-methylpiperidine-4-carboxamide monohydrochloride]	213 to 215 °C
Cc1cc(F)ccc1[C@@H]1CN(CC(=O)NC2CC2)CC[C@H]1C(=O)N(C)Cc1cc(C(F)(F)F)cc(C(F)(F)F)c1 (relative stereo) (as salt: hydrochloride) [Example 103, (3R*,4R*)—N-[3,5-bis(trifluoromethyl)benzyl]-1-[2-(cyclopropylamino)-2-oxoethyl]-3-(4-fluoro-2-methylphenyl)-N-methylpiperidine-4-carboxamide monohydrochloride]	210 to 214 °C
Cc1cc(F)ccc1[C@@H]1CN(C2CCN(C(N)=O)CC2)CC[C@H]1C(=O)N(C)Cc1cc(C(F)(F)F)cc(C(F)(F)F)c1 (relative stereo) (as salt: hydrochloride) (hydrate or solvate) [Example 109, (3R*,4R*)—N^4-[3,5-bis(trifluoromethyl)benzyl]-3-(4-fluoro-2-methylphenyl)-N^4-methyl-1,4′-bipiperidine-1′,4-dicarboxamide monohydrochloride]	175 to 178 °C
Cc1cc(F)ccc1[C@@H]1CN(CC(=O)N2CCC(O)CC2)CC[C@H]1C(=O)N(C)Cc1cc(C(F)(F)F)cc(C(F)(F)F)c1 (relative stereo) (as salt: hydrochloride) [Example 104, (3R*,4R*)—N-[3,5-bis(trifluoromethyl)benzyl]-3-(4-fluoro-2-methylphenyl)-1-[2-(4-hydroxypiperidin-1-yl)-2-oxoethyl]-N-methylpiperidine-4-carboxamide monohydrochloride]	220 to 224 °C
Cc1cc(F)ccc1[C@@H]1CN(C(C)CO)CC[C@H]1C(=O)N(C)Cc1cc(C(F)(F)F)cc(C(F)(F)F)c1 (relative stereo) (as salt: hydrochloride) [Example 120, (3R*,4R*)—N-[3,5-bis(trifluoromethyl)benzyl]-3-(4-fluoro-2-methylphenyl)-1-(2-hydroxy-1-methylethyl)-N-methylpiperidine-4-carboxamide monohydrochloride]	234 to 236 °C
Cc1cc(F)ccc1[C@@H]1CN(CC(N)=O)CC[C@H]1C(=O)N(C)Cc1cc(C(F)(F)F)cc(C(F)(F)F)c1 (relative stereo) (as salt: hydrochloride) (hydrate or solvate) [Example 112, (3R*,4R*)-1-(2-amino-2-oxoethyl)-N-[3,5-bis(trifluoromethyl)benzyl]-3-(4-fluoro-2-methylphenyl)-N-methylpiperidine-4-carboxamide monohydrochloride]	175 to 177 °C
Cc1cc(F)ccc1[C@@H]1CN(C2CCN(C(=O)C(N)=O)CC2)CC[C@H]1C(=O)N(C)Cc1cc(C(F)(F)F)cc(C(F)(F)F)c1 (relative stereo) (as salt: hydrochloride) (hydrate or solvate) [Example 108, (3R*,4R*)-1′-[amino(oxo)acetyl]-N-[3,5-bis(trifluoromethyl)benzyl]-3-(4-fluoro-2-methylphenyl)-N-methyl-1,4′-bipiperidine-4-carboxamide monohydrochloride]	175 to 176 °C
Cc1cc(F)ccc1[C@H]1CN(CC(N)=O)CC[C@@H]1C(=O)N(C)[C@H](C)c1cc(C(F)(F)F)cc(C(F)(F)F)c1.Cl (hydrate or solvate)	133 to 139 °C
